Results published in paper PMC9030833, “Molecular Modeling and Experimental Evaluation of Non-Chiral Components of Bergamot Essential Oil with Inhibitory Activity against Human Monoamine Oxidases” (Molecules, 2022).

Assays:
hMAO-A = target: T1, hMAO-A (Homo sapiens, UniProt P21397); experiment: In vitro hMAO-A inhibition, spectrophotometric Kynuramine deamination assay; format: biochemical
T1 construct: purchased Sigma-Aldrich; host or cells: insect cells (BTI-TN-5B1-4), recombinant baculovirus
T1 sequence (P21397 1-527): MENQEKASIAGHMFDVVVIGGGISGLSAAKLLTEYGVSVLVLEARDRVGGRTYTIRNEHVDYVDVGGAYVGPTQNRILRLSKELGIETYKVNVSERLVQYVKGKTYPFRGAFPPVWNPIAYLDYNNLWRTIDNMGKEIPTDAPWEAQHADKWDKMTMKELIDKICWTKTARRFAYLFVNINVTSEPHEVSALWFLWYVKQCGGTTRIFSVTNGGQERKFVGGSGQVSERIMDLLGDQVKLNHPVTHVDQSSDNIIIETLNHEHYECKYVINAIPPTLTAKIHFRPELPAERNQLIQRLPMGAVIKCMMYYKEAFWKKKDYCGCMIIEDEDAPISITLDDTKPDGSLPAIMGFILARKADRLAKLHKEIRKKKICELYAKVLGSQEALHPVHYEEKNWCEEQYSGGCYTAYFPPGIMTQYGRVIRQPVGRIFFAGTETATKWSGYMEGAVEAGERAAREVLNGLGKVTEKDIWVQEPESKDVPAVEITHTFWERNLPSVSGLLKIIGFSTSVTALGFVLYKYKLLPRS
Experimental: (§1) To this end, a spectrophotometric method based on the oxidative deamination of Kynuramine by recombinant hMAO-A or hMAO-B was used.
(§2) The inhibitory activity of Bergamottin on hMAO-A and hMAO-B was studied using an experimental protocol described elsewhere. The hMAO inhibitory activity was assessed in microsomal MAO isoforms prepared from insect cells (BTI-TN-5B1-4) infected with recombinant baculovirus containing cDNA inserts for hMAO-A or hMAO-B, and by measuring the enzymatic conversion rates of Kynuramine into 4-hydroxyquinoline. […] All assays were performed in sodium phosphate buffer solution 50 mM pH 7.4.
(§3) Then, the reaction was started with the addition of hMAO-A or hMAO-B. Initial velocities were determined spectrophotometrically in a microplate reader (BioTek Synergy HT from BioTek Instruments, Winooski, VT, USA) at 37 °C by measuring the formation of 4-hydroxyquinoline at 316 nm, over a period of at least 30 min (interval of 1 min). Data were analyzed using GraphPad PRISM version 6 for Windows (GraphPad Software®, San Diego, CA, USA). […] IC50 values were obtained from dose–response curves and were expressed as mean ± standard deviation. IC50 values were determined from at least three independent experiments, each performed in triplicate. […]

hMAO-B = target: T2, hMAO-B (Homo sapiens, UniProt P27338); experiment: In vitro hMAO-B inhibition, spectrophotometric Kynuramine deamination assay; format: biochemical
T2 construct: purchased Sigma-Aldrich; host or cells: insect cells (BTI-TN-5B1-4), recombinant baculovirus
T2 sequence (P27338 1-520): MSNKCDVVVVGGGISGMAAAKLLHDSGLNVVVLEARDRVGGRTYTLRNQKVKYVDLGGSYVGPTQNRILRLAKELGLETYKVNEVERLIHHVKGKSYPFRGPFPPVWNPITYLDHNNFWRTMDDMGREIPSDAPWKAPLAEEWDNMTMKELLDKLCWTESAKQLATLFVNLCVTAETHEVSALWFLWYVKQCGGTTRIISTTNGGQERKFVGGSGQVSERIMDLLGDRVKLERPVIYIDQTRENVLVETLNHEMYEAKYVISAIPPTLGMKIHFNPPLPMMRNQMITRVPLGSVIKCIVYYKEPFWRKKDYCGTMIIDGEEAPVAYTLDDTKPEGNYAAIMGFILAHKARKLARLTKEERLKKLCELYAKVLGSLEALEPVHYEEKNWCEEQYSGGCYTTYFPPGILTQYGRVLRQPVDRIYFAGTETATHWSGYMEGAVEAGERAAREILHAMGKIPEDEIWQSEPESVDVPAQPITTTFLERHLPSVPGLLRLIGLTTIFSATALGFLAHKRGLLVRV
Experimental: as §1, §2, §3

CC(C)=CCC/C(C)=C/COc1c2ccoc2cc2oc(=O)ccc12 [Bergamottin]
IC50 (hMAO-A): 9.25 ± 0.91 µM
IC50 (hMAO-B; recombinant hMAO-B, Kynuramine substrate): 0.291 µM
SI (selectivity index) (hMAO-B; selectivity for hMAO-B over hMAO-A from the IC50 values): 31.8
